Test results published in BindingDB's records for patent US20240208932 (Xizang Haisco Pharmaceutical, 2024).

Tests used:
Test in all cases: CYP450 Enzyme Inhibition Assay
[1] = molecular target: T1, Cytochrome P450 1A2 (Homo sapiens, UniProt P05177)
T1 sequence (P05177 whole entry): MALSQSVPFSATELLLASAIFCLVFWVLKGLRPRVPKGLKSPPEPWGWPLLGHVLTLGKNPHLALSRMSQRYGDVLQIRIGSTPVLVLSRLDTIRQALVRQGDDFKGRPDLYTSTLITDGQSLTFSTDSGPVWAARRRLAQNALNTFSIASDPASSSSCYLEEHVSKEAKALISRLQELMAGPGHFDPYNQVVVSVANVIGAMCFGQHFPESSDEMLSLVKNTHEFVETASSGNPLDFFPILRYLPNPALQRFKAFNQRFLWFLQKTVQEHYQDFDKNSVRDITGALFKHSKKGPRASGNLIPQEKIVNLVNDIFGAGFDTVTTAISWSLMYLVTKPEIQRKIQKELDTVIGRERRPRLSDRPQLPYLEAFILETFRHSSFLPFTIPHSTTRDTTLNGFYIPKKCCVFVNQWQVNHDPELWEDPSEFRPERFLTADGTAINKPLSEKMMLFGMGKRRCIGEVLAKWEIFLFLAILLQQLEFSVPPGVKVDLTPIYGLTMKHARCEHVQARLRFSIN
Experimental: (§1) The purpose of this study was to evaluate the effect of the test compound on the activity of five isoenzymes (CYP1A2, CYP2C9, CYP2C19, CYP2D6 and CYP3A4) of human liver microsomal cytochrome P450 (CYP) by using an in vitro testing system. The specific probe substrates of CYP450 isoenzymes were incubated with human liver microsomes and test compounds of different concentrations, and reduced nicotinamide adenine dinucleotide phosphate (NADPH) was added to initiate the reaction. After the completion of the reaction, the sample was treated and liquid chromatography-tandem mass spectrometry (LC-MS/MS) was used to quantitatively detect metabolites produced by specific substrates, changes in CYP enzyme activity were determined, and IC50 value was calculated to evaluate the inhibitory potential of the test compound on each CYP enzyme subtype.

[2] = molecular target: Cytochrome P450 3A4 (Homo sapiens, UniProt P08684)
Experimental: as §1

[3] = molecular target: Cytochrome P450 2C9 (Homo sapiens, UniProt P11712)
Experimental: as §1

[4] = molecular target: Cytochrome P450 2C19 (Homo sapiens, UniProt P33261)
Experimental: as §1

[5] = molecular target: Cytochrome P450 2D6 (Homo sapiens, UniProt P10635)
Experimental: as §1

Chain of Cytochrome P450 3A4 (P08684 whole entry): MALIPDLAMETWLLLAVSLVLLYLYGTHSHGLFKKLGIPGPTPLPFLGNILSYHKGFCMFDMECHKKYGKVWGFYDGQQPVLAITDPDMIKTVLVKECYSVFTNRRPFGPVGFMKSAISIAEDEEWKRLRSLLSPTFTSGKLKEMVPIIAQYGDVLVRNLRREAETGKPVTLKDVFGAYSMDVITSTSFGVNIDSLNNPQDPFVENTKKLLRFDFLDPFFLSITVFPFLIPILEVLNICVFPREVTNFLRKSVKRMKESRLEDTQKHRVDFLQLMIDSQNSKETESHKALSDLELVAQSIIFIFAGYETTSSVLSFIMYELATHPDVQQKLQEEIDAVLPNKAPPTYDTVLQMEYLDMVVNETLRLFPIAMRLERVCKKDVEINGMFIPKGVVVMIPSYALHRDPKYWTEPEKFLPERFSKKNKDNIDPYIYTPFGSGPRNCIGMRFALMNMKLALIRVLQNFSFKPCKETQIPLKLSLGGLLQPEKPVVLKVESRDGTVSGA
Chain of Cytochrome P450 2C9 (P11712 whole entry): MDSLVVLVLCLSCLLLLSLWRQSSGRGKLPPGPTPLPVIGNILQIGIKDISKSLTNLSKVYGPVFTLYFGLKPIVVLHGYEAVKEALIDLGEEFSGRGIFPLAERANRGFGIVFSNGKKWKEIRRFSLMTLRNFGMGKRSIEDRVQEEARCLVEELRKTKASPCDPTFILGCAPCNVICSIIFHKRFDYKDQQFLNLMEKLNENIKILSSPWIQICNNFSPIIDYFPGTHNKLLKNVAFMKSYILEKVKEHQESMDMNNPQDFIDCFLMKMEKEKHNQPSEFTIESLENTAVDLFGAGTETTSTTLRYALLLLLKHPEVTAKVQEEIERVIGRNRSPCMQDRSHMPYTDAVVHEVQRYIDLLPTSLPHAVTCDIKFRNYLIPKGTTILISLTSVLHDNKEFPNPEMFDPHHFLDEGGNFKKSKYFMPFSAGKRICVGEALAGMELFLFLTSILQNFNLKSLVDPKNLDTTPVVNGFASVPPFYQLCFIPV
Chain of Cytochrome P450 2D6 (P10635 whole entry): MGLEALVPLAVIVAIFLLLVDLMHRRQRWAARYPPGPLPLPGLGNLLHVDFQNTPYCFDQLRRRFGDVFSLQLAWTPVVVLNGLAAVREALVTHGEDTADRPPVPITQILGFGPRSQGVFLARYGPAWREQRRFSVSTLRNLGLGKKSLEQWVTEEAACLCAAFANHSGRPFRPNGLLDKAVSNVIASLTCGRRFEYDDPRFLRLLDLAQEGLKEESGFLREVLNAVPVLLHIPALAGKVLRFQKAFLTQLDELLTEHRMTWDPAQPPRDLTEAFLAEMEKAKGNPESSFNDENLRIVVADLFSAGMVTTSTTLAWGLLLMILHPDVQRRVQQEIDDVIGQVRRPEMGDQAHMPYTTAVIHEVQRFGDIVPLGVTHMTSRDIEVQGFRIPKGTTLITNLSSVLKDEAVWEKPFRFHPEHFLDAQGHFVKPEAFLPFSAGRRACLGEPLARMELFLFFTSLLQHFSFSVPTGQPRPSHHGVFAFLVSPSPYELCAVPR
Chain of Cytochrome P450 2C19 (P33261 whole entry): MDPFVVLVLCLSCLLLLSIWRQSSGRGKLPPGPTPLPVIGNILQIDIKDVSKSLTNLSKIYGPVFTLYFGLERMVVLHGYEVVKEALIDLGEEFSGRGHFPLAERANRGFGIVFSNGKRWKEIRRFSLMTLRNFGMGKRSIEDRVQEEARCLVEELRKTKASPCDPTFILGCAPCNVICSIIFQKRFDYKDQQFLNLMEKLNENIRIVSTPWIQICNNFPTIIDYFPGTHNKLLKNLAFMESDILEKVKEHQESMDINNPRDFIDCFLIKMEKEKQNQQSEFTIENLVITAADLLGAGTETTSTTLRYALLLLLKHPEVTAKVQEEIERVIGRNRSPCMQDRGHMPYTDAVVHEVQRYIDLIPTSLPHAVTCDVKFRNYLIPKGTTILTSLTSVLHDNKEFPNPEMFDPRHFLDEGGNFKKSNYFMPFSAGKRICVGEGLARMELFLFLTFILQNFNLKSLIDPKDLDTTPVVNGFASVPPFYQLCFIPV

**Q.** With C[C@@H]1Cc2c([nH]c3ccccc23)[C@H](c2c(F)cc(N[C@H]3CCN(CCCF)C3)cc2F)N1CC(F)(F)F [WO2021228210, Compound 4] as the compound, how does the IC50 [1] read?
**A.** 15.6 µM

**Q.** What about the IC50 [2] of the same compound?
**A.** 12.8 µM

**Q.** And the IC50 [3]?
**A.** 15.6 µM

**Q.** What about the IC50 [4] of the same compound?
**A.** 19.1 µM

**Q.** What about the IC50 [5] of the same compound?
**A.** 13.8 µM
